This data set in a line: Solubility of retigabine in aqueous solution at varying pH. It counts as physicochemical. From the text:
Solubility was low in pH ranges of between pH 4.0 to pH 12.0.

≈ marks a conversion by molar mass, not a printed value. Read-outs that look alike come from different tables or passages of the source.

Turning to `CCOC(=O)Nc1ccc(NCc2ccc(F)cc2)cc1N` [retigabine, N-(2-amino-4-(fluorobenzylamino)-phenyl)carbamic acid ethyl ester], under “above pH 3 (FIG. 5)”, the “solubility as a function of pH” value is “drops off precipitously”. For the same molecule, the solubility (usually how much of the substance goes into solution per volume) is, setting by setting: (pH 3.0, aqueous conditions at 37° C.) “nearly complete insolubility”; (pH 4.0 to pH 12.0, aqueous solution at 37° C.) “low”; (simulated gastric fluid, pH 1.5, aqueous solution at 37° C., maximum solubility, read-out: solubility) approximately 16 mg/mL (≈ 52.7 mM); (simulated gastric fluid, pH 2.0, aqueous solution at 37° C., read-out: solubility) less than 4 mg/mL.

The values above are taken from patent publication US20100323016A1, “MODIFIED RELEASE FORMULATION AND METHODS OF USE” (priority 2008, published 2010).
